Data as given in patent US20250052769A1, “MIMOTOPES OF ARA H 2 AND USES OF THE SAME TO DIAGNOSE PEANUT ALLERGIES” (The Regents of the University of Colorado, A Body Corporate, priority 2023, published 2025).
“Also recorded” adds a separate entry of the source. Non-standard residues stand in square brackets, D forms with d. No end group written: not given here. Hyp = O=C(O)[C@@H]1C[C@@H](O)CN1

Columns and labels:
[1] = tested on: Ara h 2-specific IgE; assay: Biotin/streptavidin ELISA of serum IgE binding to peptides; design: species or system human; conditions: for IgE binding by ELISA, Biotide peptides: serum pool at 10 IU/ml Ara h 2-sIgE, 20-30% pure Biotide peptides at 1 nM, Bt-anti-HuIgE 1:3,000 (FIG. 5A, 6A); for IgE binding by ELISA, purified peptides: serum pool at 10 IU/ml, 95-97% pure peptides at 5 nM, Bt-anti-HuIgE 1:500 (FIG. 5B, 6B)
Excerpt: (§1) To produce the serum pool, 10 individual sera were pooled with the concentration of Ara h 2-sIgE normalized so that no one serum was predominant (Table 2). Seven sera were studied in detail, 3 of these were included in the serum pool and 4 independent of the serum pool (Table 2). The Colorado Multiple Institutional Review Board (COMIRB) approved this study. All adult patients and the parents or guardians of minors gave written informed consent. Minors who were >6 years of age, signed an assent.
(§2) Peptides for ELISAs were synthesized with an N-terminal linker arm (Ttds; JPT Peptides, Berlin) followed by biotin at the N terminus. Prior to generating microarrays with high fidelity sequences, we performed screening assays using the Biotide approach (JPT Peptides, Berlin) in which multiple related peptides are synthesized in a cost-effective manner at approximately 20% purity. For validation, selected peptides were also synthesized by standard methods and purified (95-97% pure) by HPLC (JPT Laboratories, Berlin). For all peptides of epitope 3 and the related mimotope studied here, trans-4-hydroxyproline (h) was substituted for second proline in the DPY_P motif as this substitution may enhance binding of IgE. Peptides for microarray assays were synthesized with the Ttds linker arm on the N terminus and printed onto microscope slides treated with a proprietary 3-dimensional surface by JPT Peptides (Berlin).
Streptavidin (InVitrogen) (5 μg/ml) was bound to micro titer plates by overnight incubation in PBS, the plates were washed once with PBST (0.05% Tween 20) and 50 μL of peptides were added at a final concentration of 1-5 nM in PBST for 1 hour at room temperature. Unoccupied streptavidin sites were then saturated with 400 μM biotin in PBS and the samples were probed with diluted sera from allergic subjects diluted in PBST with 0.1% albumin to contain 10 IU/ml of Ara h 2-sIgE. After overnight incubation at 4° C., slides were washed, incubated with HRP-labeled murine monoclonal anti-human IgE (clone HP6029; Southern Biotech 1:500-1:3,000), washed again and developed with TMB (ThermoFisher Scientific). Background binding of serum without peptide (OD=approximately 0.100) was subtracted. We also examined the background of peptide without serum and this was similar to, or lower than, the background of serum without peptide.
(§3) GraphPad Prism (versions 8.4-9.5 for the Macintosh (GraphPad; La Jolla, CA)) was used to generate graphs and for statistical analysis. The following analyses were performed: 1) for dose response curves, multiple unpaired t test with Welch correction for unequal variances; 2) to combine data from multiple assays, the data were normalized within each assay based on IgE binding to the native sequence (epitope 3) or the original sequence (mimotope A147) and expressed binding as percent of binding and 3) to compare differences in IgE binding for a specific alanine substitution, one way ANOVA followed by Dunnet's multiple comparison test.

[2] = tested on: Ara h 2-specific IgE; assay: Peptide microarray of serum IgE binding (dose response and alanine scans); design: species or system human
Excerpt: as §1, §2
Each microscope slide contained 21 microarrays and within each microarray, peptides were printed in triplicate. 10-15 spots were not printed with any peptide as control spots. Sera were diluted to contain the same concentrations of Ara h 2-sIgE (usually 10 IU/ml) or at various concentrations for dose response assays and assayed in duplicate arrays on 3-4 separate days as previously described except for use of biotinylated anti-IgE (clone HP6029 from Southern Biotech at 1:1,000). For each microarray assay, the density units of three observations within each microarray were averaged and then the data from duplicate microarrays were averaged. To combine data from multiple independent assays, the signal within each assay was normalized to that of a wild-type peptide and the signal was expressed as a percent of that with the original peptide. Background binding of serum without peptide (300-500 AU) was subtracted. We also examined the background of peptide without serum. Only for the mimotope, this background was higher than the background of serum without peptide and these values (5,000-10,000 AU), which were quite high, were subtracted from the signal of serum with peptide (which bound IgE very strongly (20,000-30,000 AU), instead of subtracting the background of serum without peptide.
Linear sequences of epitope 3 and the mimotope as well as derivative peptides in which each amino acid was sequentially changed to alanine were studied.
as §3

LLDPYAPRAWTK [A147]
IgE binding by ELISA, Biotide peptides [1]: did not bind IgE well

Y10: Epitope 3-Core (DEDSYERDPYShSQDP) with amino acid Y10 changed to alanine (DEDSYERDPAS[Hyp]SQDP)
Relevance of the residue for IgE binding, alanine scan of Epitope 3-Core with individual sera ([2]; 7 individual sera (FIG. 2B)): relevant for most sera | IgE binding after alanine substitution, density units normalized to WT sequence ([2]; alanine scan of Epitope 3-Core, serum pool at 10 IU/ml Ara h 2-sIgE, percent of WT signal (FIG. 1B)): 9±6%

DEDSYERDPYShSQDP (DEDSYERDPYS[Hyp]SQDP) [Epitope 3-Core]
IgE binding by ELISA, Biotide peptides [1]: bind IgE almost as well as the 20mer sequence | IgE binding by ELISA, purified peptides [1]: bound similar amounts of IgE; also recorded: No significant differences were seen; also recorded: strong binding

ERDPYShSQDPYShSPYDRR (ERDPYS[Hyp]SQDPYS[Hyp]SPYDRR) [20mer version of epitope 3]
IgE binding by ELISA, purified peptides [1]: bound similar amounts of IgE

LLDPYAhRAWTK (LLDPYA[Hyp]RAWTK) [mimotope with P->h]
IgE binding by ELISA, Biotide peptides [1]: bound more IgE at all doses than did the original mimotope | IgE binding by ELISA, Biotide peptides ([1]; listed as SEQ ID NO:2): binding was dramatically enhanced | IgE binding by ELISA, purified peptides [1]: No significant differences were seen | IgE binding by ELISA, purified peptides ([1]; listed as SEQ ID NO:2): bound similar amounts of IgE as did Epitope 3-Core | IgE binding by ELISA, purified peptides ([1]; listed as substituted mimotope): bound amounts of IgE similar to that of the Epitope 3-Core peptide | Microarray signal of serum with peptide ([2]; before background subtraction): 20,000-30,000 AU | IgE binding in microarray format at Ara h 2 sIgE of 0.3 kU/L ([2]; serum pool at 0.3 kU/L Ara h 2 sIgE, p<0.05 (FIG. 7)): bound significantly more IgE than did Epitope 3-Core | IgE binding in microarray format, dose response of serum ([2]; serum pool at various doses, P substituted with h in all peptides (FIG. 7)): tended to bind more IgE at lower doses of serum
